Test results published in patent publication US20060069132A1, “Azolecarboxamide herbicides” (priority 2004, published 2006).

Assays:
rice [1] = assay: Test C flooded paddy test; format: in vivo, Oryza sativa
How it was run: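 Plants were grown to the 1- to 4-leaf stage (2–18 cm) and then treated postemergence, or grown to the 2-leaf stage for the flooded paddy test. They were held in a greenhouse for 12 to 14 days and then scored by eye against controls, where 0 is no effect and 100 is complete control.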

blackgrass = assay: Test B postemergence herbicide test; format: in vivo, Alopecurus myosuroides; conditions: postemergence, 500 g ai/ha; visual rating, scale 0 (no effect) to 100 (complete control)
How it was run: (§1)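 Postemergence plants were sprayed with formulated test chemicals at 2 to 18 cm height (1- to 4-leaf stage); paddy species were grown to the 2-leaf stage. After 13 to 15 days in a greenhouse, injury was rated visually against untreated controls on a 0–100 scale (0 = no effect, 100 = complete control).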

Surinam grass = assay: Test B pre-/postemergence herbicide test; format: in vivo, Urochloa decumbens; conditions: for Plant response rating, Surinam Grass: preemergence; for Surinam Grass plant response rating: postemergence, visual rating, scale 0 (no effect) to 100 (complete control)
How it was run: (§2)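 Seeds were planted and treated preemergence with compounds formulated in a non-phytotoxic solvent mixture containing surfactant, while plants at the 1- to 4-leaf stage (2 to 18 cm) received postemergence sprays. Flooded paddy plants were grown to the 2-leaf stage. After 13 to 15 days in a greenhouse, injury was visually rated 0–100 against untreated controls.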

rice [2] = assay: Test B pre-/postemergence herbicide test; format: in vivo, Oryza sativa; conditions: 500 g ai/ha; visual rating 0-100, 0 no effect, 100 complete control; preemergence
How it was run: as §2

velvetleaf = assay: Test B pre-/postemergence herbicide test; format: in vivo, Abutilon theophrasti; conditions: for Plant response rating, Velvetleaf: preemergence; for Velvetleaf plant response rating: postemergence, visual rating, scale 0 (no effect) to 100 (complete control)
How it was run: as §2

wheat = assay: Test B postemergence herbicide test; format: in vivo, Triticum aestivum; set-up: key to Wheat plant response rating: 0 = no effect, 100 = complete control; conditions: postemergence, 500 g ai/ha; visual rating, scale 0 (no effect) to 100 (complete control)
How it was run: (§3)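 Scale 0–100: zero equals no visible effect, 100 complete control, judged by eye relative to controls. Timing: 13 to 15 days in greenhouse post-treatment. Growth stage at spraying: two leaves (paddy) or one to four leaves, 2–18 cm (postemergence).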

giant foxtail = assay: Test B pre-/postemergence herbicide test; format: in vivo, Setaria faberi; conditions: for Plant response rating, Foxtail, Giant: preemergence; for Foxtail, Giant plant response rating: postemergence, visual rating, scale 0 (no effect) to 100 (complete control)
How it was run: as §2

[3] = test system: smallflower umbrella sedge; assay: Test C flooded paddy test; format: in vivo, Cyperus difformis
barnyardgrass [4] = assay: Test B flooded paddy test; format: in vivo, Echinochloa crus-galli; conditions: 1000 g ai/ha, visual rating, scale 0 to 100 (0 no effect, 100 complete control), 13 to 15 days
How it was run: as §1

ducksalad [5] = assay: Test C flooded paddy test; format: in vivo, Heteranthera limosa
lambsquarters = assay: Test B pre-/postemergence herbicide test; format: in vivo, Chenopodium album; conditions: for Plant response rating, Lambsquarters: preemergence; for Lambsquarters plant response rating: postemergence, visual rating, scale 0 (no effect) to 100 (complete control)
How it was run: as §2

[6] = test system: small flower umbrella sedge; assay: Test B flooded paddy test; format: in vivo, Cyperus difformis; conditions: 1000 g ai/ha, visual rating, scale 0 to 100 (0 no effect, 100 complete control), 13 to 15 days
How it was run: as §1

large crabgrass = assay: Test B pre-/postemergence herbicide test; format: in vivo, Digitaria sanguinalis; conditions: for Plant response rating, Crabgrass, Large: preemergence; for Crabgrass, Large plant response rating: postemergence, visual rating, scale 0 (no effect) to 100 (complete control)
How it was run: as §2

ducksalad [7] = assay: Test B flooded paddy test; format: in vivo, Heteranthera limosa; conditions: 1000 g ai/ha, visual rating, scale 0 to 100 (0 no effect, 100 complete control), 13 to 15 days
How it was run: as §1

wild oat = assay: Test B postemergence herbicide test; format: in vivo, Avena fatua; conditions: postemergence, visual rating, scale 0 (no effect) to 100 (complete control)
How it was run: as §3

cocklebur = assay: Test B pre-/postemergence herbicide test; format: in vivo, Xanthium strumarium; conditions: for Plant response rating, Cocklebur: preemergence; for Cocklebur plant response rating: postemergence, visual rating, scale 0 (no effect) to 100 (complete control)
How it was run: as §2

rice [8] = assay: Test B flooded paddy test; format: in vivo, Oryza sativa; conditions: 1000 g ai/ha, visual rating, scale 0 to 100 (0 no effect, 100 complete control), 13 to 15 days
How it was run: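 Visual ratings, 0 (no effect) to 100 (complete control), made versus controls after 13–15 d greenhouse. Paddy plants treated at 2-leaf stage; postemergence plants at 1- to 4-leaf stage, 2–18 cm tall.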

morningglory = assay: Test B pre-/postemergence herbicide test; format: in vivo, Ipomoea coccinea; conditions: for Plant response rating, Morningglory: preemergence; for Morningglory plant response rating: postemergence, visual rating, scale 0 (no effect) to 100 (complete control)
How it was run: as §2

barnyardgrass [9] = assay: Test C flooded paddy test; format: in vivo, Echinochloa crus-galli
How it was run: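 Scoring by eye, 12–14 days post-treatment, greenhouse-held plants vs. controls; 0 no effect, 100 complete control. Sprayed at 1–4 leaves (2–18 cm); paddy barnyardgrass at 2 leaves, flooded.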

corn = assay: Test B pre-/postemergence herbicide test; format: in vivo, Zea mays; conditions: for Plant response rating, Corn: preemergence; for Corn plant response rating: postemergence, visual rating, scale 0 (no effect) to 100 (complete control)
How it was run: as §2

barnyardgrass [10] = assay: Test B pre-/postemergence herbicide test; format: in vivo, Echinochloa crus-galli; conditions: for Plant response rating, Barnyardgrass: preemergence; for Barnyardgrass plant response rating: postemergence, visual rating, scale 0 (no effect) to 100 (complete control)
How it was run: as §2

pigweed = assay: Test B pre-/postemergence herbicide test; format: in vivo, Amaranthus retroflexus; conditions: for Plant response rating, Pigweed: preemergence; for Pigweed plant response rating: postemergence, visual rating, scale 0 (no effect) to 100 (complete control)
How it was run: as §2

[11] = 62 g ai/ha, scale 0 to 100 (0 no effect, 100 complete control)
[12] = 125 g ai/ha, scale 0 to 100 (0 no effect, 100 complete control)
[13] = 250 g ai/ha, scale of 0 to 100, 0 is no effect, 100 is complete control
[14] = 500 g ai/ha, visual rating after 12 to 14 days, scale 0 to 100 (0 no effect, 100 complete control)
[15] = 500 g ai/ha, visual rating 0-100, 0 no effect, 100 complete control
[16] = 125 g ai/ha, 0 to 100 scale, 0 is no effect, 100 is complete control

SMILES: C#CCN(C)C(=O)c1ccnc(NC(=O)c2cc(C(C)(C)C)nn2CC)c1 [Compound 160]
- Rice plant response rating (rice [1]; [11]): 60
- Rice plant response rating (rice [1]; [12]): 70
- Rice plant response rating (rice [1]; [13]): 75
- Plant response rating, Rice (rice [1]; [14]): 95
- Blackgrass plant response rating (blackgrass): 50
- Plant response rating, Surinam Grass (Surinam grass; [15]): 70
- Surinam Grass plant response rating (Surinam grass; 125 g ai/ha): 10
- Surinam Grass plant response rating (Surinam grass; 500 g ai/ha): 10
- Plant response rating, Surinam Grass (Surinam grass; [16]): 20
- Plant response rating, Rice (rice [2]): 80
- Plant response rating, Velvetleaf (velvetleaf; [15]): 80
- Velvetleaf plant response rating (velvetleaf; 125 g ai/ha): 70
- Velvetleaf plant response rating (velvetleaf; 500 g ai/ha): 70
- Plant response rating, Velvetleaf (velvetleaf; [16]): 60
- Wheat plant response rating (wheat): 10
- Plant response rating, Foxtail, Giant (giant foxtail; [15]): 70
- Foxtail, Giant plant response rating (giant foxtail; 125 g ai/ha): 30
- Foxtail, Giant plant response rating (giant foxtail; 500 g ai/ha): 30
- Plant response rating, Foxtail, Giant (giant foxtail; [16]): 10
- Sedge, Umbrella plant response rating [3, 11]: 50
- Sedge, Umbrella plant response rating [3, 12]: 70
- Sedge, Umbrella plant response rating [3, 13]: 80
- Plant response rating, Sedge, Umbrella [3, 14]: 85
- Barnyardgrass plant response rating (barnyardgrass [4]): 70
- Ducksalad plant response rating (ducksalad [5]; [11]): 75
- Ducksalad plant response rating (ducksalad [5]; [12]): 85
- Ducksalad plant response rating (ducksalad [5]; [13]): 90
- Plant response rating, Ducksalad (ducksalad [5]; [14]): 90
- Plant response rating, Lambsquarters (lambsquarters; [15]): 100
- Lambsquarters plant response rating (lambsquarters; 125 g ai/ha): 70
- Lambsquarters plant response rating (lambsquarters; 500 g ai/ha): 80
- Plant response rating, Lambsquarters (lambsquarters; [16]): 100
- Sedge, Umbrella plant response rating [6]: 80
- Plant response rating, Crabgrass, Large (large crabgrass; [15]): 80
- Crabgrass, Large plant response rating (large crabgrass; 125 g ai/ha): 0
- Crabgrass, Large plant response rating (large crabgrass; 500 g ai/ha): 0
- Plant response rating, Crabgrass, Large (large crabgrass; [16]): 20
- Ducksalad plant response rating (ducksalad [7]): 90
- Oat, Wild plant response rating (wild oat; 125 g ai/ha): 10
- Oat, Wild plant response rating (wild oat; 500 g ai/ha): 30
- Plant response rating, Cocklebur (cocklebur; [15]): 70
- Cocklebur plant response rating (cocklebur; 125 g ai/ha): 20
- Cocklebur plant response rating (cocklebur; 500 g ai/ha): 90
- Plant response rating, Cocklebur (cocklebur; [16]): 40
- Rice plant response rating (rice [8]): 90
- Plant response rating, Morningglory (morningglory; [15]): 90
- Morningglory plant response rating (morningglory; 125 g ai/ha): 0
- Morningglory plant response rating (morningglory; 500 g ai/ha): 70
- Plant response rating, Morningglory (morningglory; [16]): 20
- Barnyardgrass plant response rating (barnyardgrass [9]; [11]): 20
- Barnyardgrass plant response rating (barnyardgrass [9]; 125 g ai/ha, scale of 0 to 100, 0 is no effect, 100 is complete control): 60
- Barnyardgrass plant response rating (barnyardgrass [9]; [13]): 70
- Plant response rating, Barnyardgrass (barnyardgrass [9]; [14]): 85
- Plant response rating, Corn (corn; [15]): 20
- Corn plant response rating (corn; 125 g ai/ha): 0
- Corn plant response rating (corn; 500 g ai/ha): 0
- Plant response rating, Corn (corn; [16]): 0
- Plant response rating, Barnyardgrass (barnyardgrass [10]; [15]): 100
- Barnyardgrass plant response rating (barnyardgrass [10]; 125 g ai/ha): 0
- Barnyardgrass plant response rating (barnyardgrass [10]; 500 g ai/ha): 10
- Plant response rating, Barnyardgrass (barnyardgrass [10]; [16]): 70
- Plant response rating, Pigweed (pigweed; [15]): 100
- Pigweed plant response rating (pigweed; 125 g ai/ha): 40
- Pigweed plant response rating (pigweed; 500 g ai/ha): 80
- Plant response rating, Pigweed (pigweed; [16]): 100
